From ChEMBL document CHEMBL1201862, “PubChem BioAssay data set” (2004)
Calls of active or inactive are those of the source. For most assays here, no stated cut-off is given here; in the data, actives have a measured EC50 and inactives only a lower limit.

Assays:
HEK293 = test: EBV LMP1 TES2 canonical NF-kB signalling blockers – cell-based, HEK293, luciferase, cherry-pick, dose response (AID 588343); assay type: functional; conditions: Homo sapiens
HT-1080 = test: HT1080 cell viability loss – fluorescence readout (AID 620); assay type: functional, cell-based; conditions: Homo sapiens
[1] = molecular target: Luciferin 4-monooxygenase (Photinus pyralis, UniProt P08659); test: Counter Screen for Luciferase-based Assay Positives. [Related pubchem assays: 620, 618, 411 ]
[2] = viability of uninfected HEp-2 cells – cell-based, HTS, cytotoxicity control for RSV inhibitor project, dose response (AID 2410); assay type: functional; conditions: human respiratory syncytial virus
Vero = test: cells; assay type: functional, cell-based; conditions: Chlorocebus sabaeus
Escherichia coli [3] = test: microbe, parasite or virus in culture
Escherichia coli [4] = test: microbe, parasite or virus in culture; remark: listed apart in the source
[5] = Luminescence Cell-Based Dose Response HTS to Identify Inhibitors of 5'UTR Stem-Loop Driven Prion Protein mRNA Translation in H4 Neuroglioblastoma Cells. [Related pubchem assays: 1827 (Project Summary), 1813 (Primary HTS)]; assay type: functional
[6] = luciferase reporter signal suppression in cells – H4 neuroglioma cells, luminescence, dose response (AID 1990); assay type: functional, cell-based
Phospholipase A2 = Phospholipase A2 (Homo sapiens, UniProt P04054); test: phospholipase A2 activity inhibition – biochemical, set 2, counter-screen for ATG4B inhibitor project, dose response (AID 588586); assay type: functional
[7] = alpha-synuclein stem-loop luciferase translation blockers – H4 neuroglioma cells, luminescence, confirmation (AID 1988); assay type: functional, cell-based
[8] = alpha-synuclein stem-loop translation blockers – luminescence, H4 neuroglioblastoma cells, dose confirmation, confirmation (AID 2454); assay type: functional, cell-based;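 further: H4 neuroglioblastoma cells carrying an alpha-synuclein 5'UTR luciferase reporter; potency for inhibition of the luciferase signal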
BJ [9] = test: cells; assay type: functional, cell-based; conditions: Homo sapiens
BJ [10] = test: growth inhibition of engineered Ras-driven BJ cells – cell-based, alamar blue fluorescence, cherrypicked samples, dose response (AID 2631); assay type: functional; conditions: Homo sapiens;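 further: confirmatory dose-response assay in RAS-dependent BJ fibroblasts engineered with TERT, LT and ST, with cytotoxicity read by fluorescence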
[11] = luciferase reporter signal reduction – luminescence, H4-C neuroglioblastoma cells, dose response (AID 2458); assay type: functional, cell-based;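 further: H4 neuroglioblastoma cells stably carrying a luciferase reporter gene fusion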
Cysteine protease ATG4B = molecular target: T1, Cysteine protease ATG4B (Homo sapiens, UniProt Q9Y4P1); test: autophagin-1 cysteine protease inhibition – biochemical, fluorescence, set 2, dose response (AID 588584); assay type: functional
T1 sequence (Q9Y4P1 whole entry): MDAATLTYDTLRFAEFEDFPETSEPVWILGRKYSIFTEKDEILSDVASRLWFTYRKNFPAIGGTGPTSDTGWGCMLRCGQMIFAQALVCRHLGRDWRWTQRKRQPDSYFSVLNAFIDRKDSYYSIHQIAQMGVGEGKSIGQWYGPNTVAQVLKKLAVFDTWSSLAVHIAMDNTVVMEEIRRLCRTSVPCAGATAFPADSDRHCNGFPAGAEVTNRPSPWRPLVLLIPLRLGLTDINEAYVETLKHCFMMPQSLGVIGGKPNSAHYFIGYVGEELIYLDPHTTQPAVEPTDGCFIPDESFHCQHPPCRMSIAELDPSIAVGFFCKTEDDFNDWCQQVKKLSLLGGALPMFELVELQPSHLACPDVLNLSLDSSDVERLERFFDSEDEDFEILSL

BJ [12] = test: BJ-TERT-LT-ST fibroblast viability loss – cell-based, RAS-independent, luminescence, dose response (AID 1935); assay type: functional; conditions: Homo sapiens;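 further: BJ fibroblasts immortalized with TERT plus LT and ST oncogenes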
[13] = DRD fibroblast viability loss – cell-based, non-viral oncogenic, luminescence, dose response (AID 1934); assay type: functional; conditions: Homo sapiens
cells = assay type: functional, cell-based
Hexokinase-1 = molecular target: T2, Hexokinase-1 (Homo sapiens, UniProt P19367); test: hexokinase 1 activity inhibitors, potency – biochemical, set 2, resazurin fluorescence coupled readout, selectivity assay for HKDC1 inhibitor project, SAR follow-up (AID 588356); assay type: functional
T2 sequence (P19367 whole entry): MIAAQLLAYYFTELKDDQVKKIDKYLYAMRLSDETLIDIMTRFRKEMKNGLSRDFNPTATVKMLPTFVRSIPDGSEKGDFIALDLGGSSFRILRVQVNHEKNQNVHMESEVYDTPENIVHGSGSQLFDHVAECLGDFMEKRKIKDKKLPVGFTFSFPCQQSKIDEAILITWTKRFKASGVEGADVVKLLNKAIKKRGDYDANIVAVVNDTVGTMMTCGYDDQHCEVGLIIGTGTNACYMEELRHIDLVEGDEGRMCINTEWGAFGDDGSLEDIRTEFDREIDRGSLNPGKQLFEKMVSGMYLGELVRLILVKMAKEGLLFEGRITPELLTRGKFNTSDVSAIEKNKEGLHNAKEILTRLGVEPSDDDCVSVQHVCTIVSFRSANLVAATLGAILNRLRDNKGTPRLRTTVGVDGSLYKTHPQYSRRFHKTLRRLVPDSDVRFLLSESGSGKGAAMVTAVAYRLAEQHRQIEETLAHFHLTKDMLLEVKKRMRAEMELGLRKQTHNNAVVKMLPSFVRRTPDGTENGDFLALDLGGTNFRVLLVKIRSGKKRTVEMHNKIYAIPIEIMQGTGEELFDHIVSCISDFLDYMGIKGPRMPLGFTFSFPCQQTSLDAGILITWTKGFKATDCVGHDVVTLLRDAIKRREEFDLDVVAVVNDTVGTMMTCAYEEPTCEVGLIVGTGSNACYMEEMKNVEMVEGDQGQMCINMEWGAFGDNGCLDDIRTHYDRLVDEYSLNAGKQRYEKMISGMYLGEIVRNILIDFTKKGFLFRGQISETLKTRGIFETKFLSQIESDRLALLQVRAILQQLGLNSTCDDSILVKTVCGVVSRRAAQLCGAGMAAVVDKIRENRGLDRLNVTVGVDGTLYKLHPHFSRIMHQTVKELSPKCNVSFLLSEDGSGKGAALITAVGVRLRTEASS

Hexokinase HKDC1 = molecular target: T3, Hexokinase HKDC1 (Homo sapiens, UniProt Q2TB90); test: analog inhibition of human HKDC1 activity – biochemical, set 2, SAR follow-up (AID 588355); assay type: functional
T3 sequence (Q2TB90 whole entry): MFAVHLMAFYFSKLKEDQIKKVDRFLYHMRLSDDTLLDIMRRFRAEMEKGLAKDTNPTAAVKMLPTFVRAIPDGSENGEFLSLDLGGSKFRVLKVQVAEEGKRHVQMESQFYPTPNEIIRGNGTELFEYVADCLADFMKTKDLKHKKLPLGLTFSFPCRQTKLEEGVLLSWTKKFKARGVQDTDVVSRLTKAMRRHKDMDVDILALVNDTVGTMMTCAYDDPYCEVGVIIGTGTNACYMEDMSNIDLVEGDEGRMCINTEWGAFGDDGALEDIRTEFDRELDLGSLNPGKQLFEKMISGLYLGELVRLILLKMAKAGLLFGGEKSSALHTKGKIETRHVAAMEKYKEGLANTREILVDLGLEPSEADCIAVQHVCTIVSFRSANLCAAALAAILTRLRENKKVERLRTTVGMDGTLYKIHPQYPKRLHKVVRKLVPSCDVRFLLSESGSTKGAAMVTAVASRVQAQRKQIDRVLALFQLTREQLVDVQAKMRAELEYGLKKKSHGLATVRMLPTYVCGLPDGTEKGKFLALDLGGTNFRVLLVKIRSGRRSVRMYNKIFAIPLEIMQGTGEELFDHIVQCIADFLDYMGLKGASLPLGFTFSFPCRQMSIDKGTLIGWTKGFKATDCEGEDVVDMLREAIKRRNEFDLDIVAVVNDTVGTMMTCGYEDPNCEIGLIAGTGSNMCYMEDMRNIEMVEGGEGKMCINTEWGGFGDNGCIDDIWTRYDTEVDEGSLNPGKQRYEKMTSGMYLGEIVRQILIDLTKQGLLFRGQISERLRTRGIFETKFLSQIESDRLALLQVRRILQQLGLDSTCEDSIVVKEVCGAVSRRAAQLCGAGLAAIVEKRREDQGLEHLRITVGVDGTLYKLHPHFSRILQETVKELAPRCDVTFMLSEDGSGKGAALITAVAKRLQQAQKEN

Chain of Luciferin 4-monooxygenase (P08659 whole entry): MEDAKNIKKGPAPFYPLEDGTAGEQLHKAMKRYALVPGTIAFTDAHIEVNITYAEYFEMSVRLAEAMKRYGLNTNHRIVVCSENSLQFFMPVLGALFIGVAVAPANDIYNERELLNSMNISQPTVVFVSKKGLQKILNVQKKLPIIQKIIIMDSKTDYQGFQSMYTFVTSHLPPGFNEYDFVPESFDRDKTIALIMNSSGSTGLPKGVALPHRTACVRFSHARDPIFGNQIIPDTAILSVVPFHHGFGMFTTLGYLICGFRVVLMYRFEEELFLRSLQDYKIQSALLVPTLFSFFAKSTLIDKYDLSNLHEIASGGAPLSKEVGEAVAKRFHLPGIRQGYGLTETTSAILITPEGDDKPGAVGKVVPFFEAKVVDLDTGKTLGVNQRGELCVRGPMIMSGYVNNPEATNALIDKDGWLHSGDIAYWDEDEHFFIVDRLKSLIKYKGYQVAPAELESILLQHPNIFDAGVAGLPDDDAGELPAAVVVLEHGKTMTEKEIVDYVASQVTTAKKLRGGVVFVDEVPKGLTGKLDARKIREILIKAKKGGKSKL
Chain of Phospholipase A2 (P04054 whole entry): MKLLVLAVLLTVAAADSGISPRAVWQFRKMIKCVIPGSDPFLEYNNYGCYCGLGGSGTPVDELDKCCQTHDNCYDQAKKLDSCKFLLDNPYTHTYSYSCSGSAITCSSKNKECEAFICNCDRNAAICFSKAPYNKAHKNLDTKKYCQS

## Cc1nc(Nc2nc3ccccc3o2)nc2c1CCC2
HEK293
  AC50: 2.54 µM (active)
HT-1080
  EC50: > 50 µM (not active)
[1]
  EC50: 5.88 µM (active)

## Cc1cccc(NC(=O)CSc2nc3ccccc3nc2N2CCCC2)c1
[2]
  CC50: 13.7 µM (active)
Vero
  IC50: > 25 µM (active)

## CCN(CC)CC(=O)c1c[nH]c2ccc(OC)cc12
Escherichia coli [3]
  AC50: 25.6 µM (active)
Escherichia coli [4]
  AC50: 26.5 µM (active)

## CCC1=Nc2cc(C(=O)NCc3ccco3)ccc2Sc2ccc(C)cc21
[5]
  EC50: 0.243 µM (active)
[6]
  EC50: 0.25 µM (active)
Phospholipase A2
  IC50: 51.7 µM (inactive)
[7]
  EC50: < 0.1 µM (active)
[8]
  EC50: > 12 µM (inconclusive)
BJ [9]
  EC50: 13.1 µM (inconclusive)
BJ [10]
  EC50: < 0.104 µM (active)
[11]
  EC50: 0.756 µM (active)
Cysteine protease ATG4B
  IC50: > 80 µM (inactive)
BJ [12]
  EC50: 0.597 µM (active)
[13]
  EC50: 0.496 µM (active)
cells
  EC50: 0.919 µM (active)

## CNc1cc2n(c(=O)n1)CCc1cc(OC)c(OC)cc1-2
Hexokinase-1
  IC50: > 80 µM (inactive)
Hexokinase HKDC1
  IC50: > 80 µM (inactive)
